# Legend:
# [1] = tested on: epithelial cells of the distal colon (crypts); assay: Labelling Index (LI) of proliferating crypt cells in distal colon, BrD-U staining; format: in vivo, Female Sprague-Dewley rats; conditions: rats, 30 days; for LI (Labelling Index): 6.3 mg/Kg/day, distal colon, control 12.62, P<0.05
# Description: The term "effective to elicit a chemoprotective effect" was used herein means that abnormal cell proliferation is reduced. A method of measuring cell proliferation in animals is the Labelling Index (LI). Epithelial cells of the distal colon are stained using a histologic biomarker of proliferating cells. Microscopic examination allows for quantification of the proportion of proliferating cells in the crypts. A high proportion of proliferating cells or LI, particularly in the upper portion of the crypts, is an indicator of abnormal cell proliferation. A reduction in the LI of at least 10 to 50%, preferably at least 30% is associated with the reduction of abnormal cell proliferation. Of course, the particular R-NSAID used must be enantiomerically stable in the animal species being tested.
# (§1) A study was performed to compare the R- and S-isomers of flurbiprofen with regard to their effect on the Labelling Index (LI) and duodenal ulceration in contrast to the S-isomer.
# (§2) Female Sprague-Dewley rats were randomized to 4 groups (N=10) receiving 6.3 mg/Kg/day R-flurbiprofen; 6.3 mg/Kg/day S-flurbiprofen; 12.5 mg/Kg/day racemic flurbiprofen; or vehicle control. Fasted rats were sacrificed after 30 days. Small bowel ulcer score was recorded in each group.
# The LI is calculated using a histologic biomarker of proliferating cells, a monoclonal antibody to Bromo-deoxyuridine (BrD-U). Intestinal crypts are examined microscopically in longitudinal sections such that proliferating cells are identified and quantified as a proportion of total crypt cells. An LI was determined for each rat using BrD-U staining to identify the proportion of mitotic cells in the crypt of Leiberkuhn. Twelve well-oriented crypts (distal colon) were examined in each rat.
# [2] = tested on: white cell count in the blood; conditions: in vivo; cited from earlier work
# neutrophils = conditions: high doses; stated as believed; cited from earlier work
# [3] = tested on: cystic fibrosis lung disease; conditions: cited from earlier work
# colon cancer [4] = conditions: cited from earlier work; for survival among colon cancer patients: 5-fluorouracil alone or with levamisole
# small bowel = tested on: small bowel; set-up: species or system Female Sprague-Dewley rats; conditions: rat, in vivo
# Protocol: The term "with reduced gastrointestinal toxicity" as used herein means that the administration of the particular R-NSAID is less ulcerogenic to the gastrointestinal tract of the human or other mammal than the corresponding racemate or S-NSAID. One measure of ulcerogenic activity is the small bowel ulcer score. A rat is treated daily through oral administration of the R-NSAID for 30 days. At the end of the 30 days, the rat is sacrificed and the intestines removed. Lesions of appreciable size in the mucosa are measured. A cumulative score equaling the sum of the diameters of the ulcers measured are reported as the ulcer score. An ulcer score essentially equal to that of a control rat, or a reduction of the ulcer score of at least 50 to 90%, preferably at least 80%, as compared to the corresponding S-NSAID or racemate, is considered a reduction in gastrointestinal toxicity.
# as §1, §2
# neutrophil traffic = assay: effect on neutrophil traffic in the normal rat; format: in vivo; conditions: for neutrophil adhesiveness and extravasation: post-capillary venules and surrounding tissue
# colon cancer [5] = conditions: cited from earlier work; for prevention of cancer of the large bowel and rectum: causal relationship with use identified by the reference
# gastric mucosa = conditions: in vivo; cited from earlier work
structure (smiles),measurement,setting,value
CC(C(=O)O)c1ccc(-c2ccccc2)c(F)c1 (racemic) [racemic flurbiprofen],"LI, result in words","[1]; equal-molar doses of both enantiomers (racemic 12.5 mg/Kg/day), relative to R- and S-flurbiprofen groups",further reduced
CC(C)Cc1ccc(C(C)C(=O)O)cc1 (racemic) [racemic ibuprofen],leukopenia/agranulocytosis syndrome,[2],leukopenia/agranulocytosis syndrome has been described
same,influx of neutrophils to the alveolar crevices,neutrophils,inhibits the influx of neutrophils to the alveolar crevices
same,progression of the lung disease,"[3]; high doses, four-year period, cystic fibrosis patients",slows progression of the lung disease
same,side effects at high doses,"[3]; human, in vivo",conjunctivitis and epistaxis
O=c1[nH]cc(F)c(=O)[nH]1 [5-fluorouracil],survival among colon cancer patients,colon cancer [4],No improvement in survival
C[C@@H](C(=O)O)c1ccc(-c2ccccc2)c(F)c1 [R-flurbiprofen],"ulcerogenicity, in words",small bowel,much less ulcerogenic than its S-enantiomer
same,"cell proliferation in the distal colon, in words",[1],suppresses cell proliferation in the distal colon
same,LI (Labelling Index),[1],8.71
same,effect on neutrophil traffic relative to the S-enantiomer,neutrophil traffic,as effective as the S-enantiomer
same,neutrophil adhesiveness and extravasation,neutrophil traffic,produce neutrophil adhesiveness in the post-capillary venules and extravasation of neutrophils into the surrounding tissue
CC(C)Cc1ccc([C@H](C)C(=O)O)cc1 [S(+) ibuprofen],gastrointestinal side effects,"[3]; human, in vivo",severely limit the chronic use of this therapy
C[C@H](C(=O)O)c1ccc(-c2ccccc2)c(F)c1 [S-flurbiprofen],LI (Labelling Index),[1],9.09
same,neutrophil adhesiveness and extravasation,neutrophil traffic,produce neutrophil adhesiveness in the post-capillary venules and extravasation of neutrophils into the surrounding tissue
CC(=O)Oc1ccccc1C(=O)O [aspirin],protection against colon cancer,colon cancer [5]; epidemiologic survey,confer protection against colon cancer
same,damage and irritation of the gastric mucosa,gastric mucosa,cause damage and irritation of the gastric mucosa
COc1ccc2c(c1)c(CC(=O)O)c(C)n2C(=O)c1ccc(Cl)cc1 [indomethacin],leukopenia/agranulocytosis syndrome,[2],leukopenia/agranulocytosis syndrome has been described
same,prevention of cancer of the large bowel and rectum,colon cancer [5],prevention of cancer of the large bowel and rectum
same,damage and irritation of the gastric mucosa,gastric mucosa,cause damage and irritation of the gastric mucosa
CC(C(=O)O)c1cccc(C(=O)c2ccccc2)c1 (stereo not drawn) [ketoprofen],leukopenia/agranulocytosis syndrome,[2],leukopenia/agranulocytosis syndrome has been described
c1ccc([C@H]2CN3CCSC3=N2)cc1 [levamisole],survival among colon cancer patients,colon cancer [4],improved survival rate
same,T-cell count / immune system,"colon cancer [4]; human, in vivo",stimulate the immune system and increase T-cell count
CN1C(C(=O)Nc2ccccn2)=C(O)c2ccccc2S1(=O)=O [peroxicam],prevention of cancer of the large bowel and rectum,colon cancer [5],prevention of cancer of the large bowel and rectum
CC1=C(CC(=O)O)c2cc(F)ccc2/C1=C\c1ccc([S+](C)[O-])cc1 (stereo not drawn) [sulindac],prevention of cancer of the large bowel and rectum,colon cancer [5],prevention of cancer of the large bowel and rectum
